Reference: patent US20050171094A1, “Pyrrolopyrimidine derivatives” (priority 2002, published 2005)
Like-named read-outs stand apart in the source and are kept apart here.

Molecular target: recombinant human GSK-3β (Homo sapiens, UniProt P49841)
Experiment: Determination of inhibition of GSK-3 enzyme activity
Type: biochemical
Settings: read-out: GSK-3 enzyme-inhibiting activity (IC50 value)
Method: Determination of Inhibition of GSK-3 Enzyme Activity
To five μl of a test compound in 5% DMSO as a solvent, 25 μl of phospho-glycogen synthase peptide-2 substrate solution [6 μm phospho-glycogen synthase peptide-2, 20 μm ATP, 16 mM MOPS buffer, pH 7.0, 0.2 mM EDTA, 20 mM magnesium acetate, 0.1 μl [γ-^33P]ATP (specific activity: about 110 TBq/mmol)] was added, and 20 μl of a GSK-3β enzyme solution [10 mU recombinant human GSK-3β, 20 mM MOPS buffer, pH 7.0, 1 mM EDTA, 0.1% polyoxyethylenelauryl ether (23 Lauryl Ether; Brij 35), 5% glycerol, 0.1% β-mercaptoethanol] was further added to initiate the reaction. After reacting at room temperature for 20 minutes, an equal amount of 200 mM phosphate solution was added to stop the reaction. 90 μl of the reaction product was allowed to adsorb to the MultiScreen PH plate (Millipore), and washed with 100 mM phosphate solution. After drying said plate, 30 μl of MicroScint-O (Packard Bioscience) was added, and cpm was measured by a scintilation counter to examine the inhibition activity. As used herein, Phospho GS Peptide 2 means […]P)-Glu-Asp-Glu-Glu-Glu (SEQ ID NO: 1).

Sequence of recombinant human GSK-3β (P49841 whole entry): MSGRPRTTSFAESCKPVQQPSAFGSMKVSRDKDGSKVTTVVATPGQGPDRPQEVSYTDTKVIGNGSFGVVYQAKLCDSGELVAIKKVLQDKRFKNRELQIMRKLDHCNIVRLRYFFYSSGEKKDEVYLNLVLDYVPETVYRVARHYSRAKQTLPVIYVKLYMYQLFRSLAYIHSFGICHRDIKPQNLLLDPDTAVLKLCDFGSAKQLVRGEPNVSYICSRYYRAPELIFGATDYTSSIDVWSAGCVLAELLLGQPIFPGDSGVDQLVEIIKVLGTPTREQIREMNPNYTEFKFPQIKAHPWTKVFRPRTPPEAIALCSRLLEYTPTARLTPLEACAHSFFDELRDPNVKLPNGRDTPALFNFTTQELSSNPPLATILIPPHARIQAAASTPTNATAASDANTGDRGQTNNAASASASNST

Row | SMILES | IC50 (IC50 class given in μM) [µM] | IC50 (phospho-glycogen synthase peptide-2 substrate, [γ-33P]ATP, IC50 class printed in nM) [µM]
1 | Cc1ccc(C(=O)N2CCc3c(C#N)c4nc[nH]c(=O)c4n3CC2)cc1 [Compound No. 50, 8-[(4-methylphenyl)carbonyl]4-oxo-3-hydro-6H,7H,9H,10H-1,4-diazaperhydroepino[1′,7′-5,1]pyrrolo[3,2-d]pyrimidine-11-carbonitrile] | 1 to 10 | 
2 | Cc1ccc(NC(=O)N2CCc3c(C#N)c4nc[nH]c(=O)c4n3CC2)cc1 [Compound No. 161, (11-cyano-4-oxo(3-hydro-6H,7H,9H,10H-1,4-diazaperhydroepino[4′,5′-1,5]pyrrolo[3,2-d]pyrimidine-8-yl))-N-(4-methylphenyl)carboxamide] | 1 to 10 | 
3 | N#Cc1c2n(c3c(=S)[nH]cnc13)CCN(S(=O)(=O)c1ccccc1)CC2 [Compound No. 410, 8-(phenylsulfonyl)-4-thioxo-3-hydro-6H,7H,9H,10H-1,4-diazaperhydroepino[1′,7′-5,1]pyrrolo[3,2-d]pyrimidine-11-carbonitrile] | 1 to 10 | 
4 | N#Cc1c2n(c3c(=S)[nH]cnc13)CCN(C(=O)Nc1cccc(C(=O)O)c1)CC2 [Compound No. 792, 3-[(11-cyano-4-thioxo-3-hydro-6H,7H,9H,10H-1,4-diazaperhydroepino[4′,5′-1,5]pyrrolo[3,2-d]pyrimidine-8-yl)carbonylamino]benzoic Acid] |  | < 0.05
5 | N#Cc1c2n(c3c(=S)[nH]cnc13)CCN(Cc1ccccc1)c1ccccc1-2 [Compound No. 1799, 5-benzyl-9-thioxo-10-hydro-6H,7H-benzo[f]pyrimidino[5′,4′-2,3]pyrrolo[1,5-d]1,4-diazepine-13-carbonitrile] | 1 to 10 | 
